Reference: patent publication US7790761B2, “Blockade of voltage dependent sodium channels” (University College London, priority 2000, dated 2010)

System: sodium channels
Experiment: [14C]-labelled guanidine flux through sodium channels
Type: biochemical, rat
Details: inhibition of flux of [14C]-labelled guanidine through sodium channels

| Compound | IC50 |
| --- | --- |
| CC(C)(C)c1cc(C(=O)Nc2ccccc2)n(Cc2ccc(Cl)cc2Cl)n1 [Example 17, 5-tert-Butyl-2-(2,4-dichloro-benzyl)-2H-pyrazole-3-carboxylic acid phenylamide] | 10 µM |
| CN(C)c1ccc(NC(=O)c2cc(-c3ccccc3)n(-c3ccc(Cl)cc3)n2)cc1 [Example 19, 1-(4-Chloro-phenyl)-5-phenyl-1H-pyrazole-3-carboxylic acid (4-dimethylamino-phenyl)-amide] | 5 µM |
| CCn1nc(-c2cccs2)cc1C(=O)NCCc1ccccc1 [Example 16, (S)-2-Ethyl-5-thiophen-2-yl-2H-pyrazole-3-carboxylic acid phenethyl-amide] | 13 µM |
| NCc1noc(-c2nn(Cc3ccccc3)c3ccccc23)n1 [Example 51, 1-Benzyl-3-[3-aminomethyl-1,2,4-oxadiazol-yl]indazole] | 22.4 µM |
| CCOC(=O)CSc1nnc(-c2cc(C(C)(C)C)nn2Cc2cccc(C)c2)n1C1CCCCC1 [Ethyl 2-([5-[3-(tert-butyl)-1-(3-methylbenzyl)-1H-pyrazol-5-yl]-4-cyclohexyl-4H-1,2,4-triazol-3-yl]thio)acetate] | < 9 µM |
| Cn1nc(C(C)(C)C)cc1C(=O)Nc1cccc(-c2cnco2)c1 [Example 29, 5-tert-Butyl-2-methyl-2H-pyrazole-3-carboxylic acid (3-oxazol-5-yl-phenyl)-amide] | 9 µM |
| COc1ccc(Cc2noc(NC(=O)c3cc(C(C)(C)C)nn3C)n2)cc1 [Example 45, 5-tert-Butyl-2-methyl-2H-pyrazole-3-carboxylic acid [3-(4-methoxy-benzyl)-[1,2,4]oxadiazol-5-yl]-amide] | 19 µM |
| Cn1c(SCC(=O)C(C)(C)C)nnc1-c1cc(C(C)(C)C)nn1Cc1ccc(F)cc1 [1-{5-[5-tert-Butyl-2-(4-fluoro-benzyl)-2H-pyrazol-3-yl]-4-methyl-4H-[1,2,4]triazol-3-ylsulfanyl}-3,3-dimethyl-butan-2-one] | 13 µM |
| CC(C)(C)c1ccc(NC(=O)c2cc(C(C)(C)C)nn2Cc2ccccc2)cc1 [Example 25, 2-Benzyl-5-tert-butyl-2H-pyrazole-3-carboxylic acid (4-tert-butyl-phenyl)-amide] | 18 µM |
| CC(=O)Nc1ccc(NC(=O)c2cc(C(C)(C)C)nn2Cc2ccc(Cl)cc2Cl)cc1 [Example 39, 5-tert-Butyl-2-(2,4-dichloro-benzyl)-2H-pyrazole-3-carboxylic acid (4-acetylamino-phenyl)-amide] | 24 µM |
| CC(C)(C)c1cc(C(=O)NCCc2ccccc2)n(Cc2ccc(Cl)cc2Cl)n1 [Example 15, 5-tert-Butyl-2-(2,4-dichloro-benzyl)-2H-pyrazole-3-carboxylic acid phenethyl-amide] | 10 µM |
| Cc1cc(C(=O)Nc2ccc(C(C)(C)C)cc2)n(C(C)(C)C)n1 [Example 21, 2-tert-Butyl-5-methyl-2H-pyrazole-3-carboxylic acid (4-tert-butyl-phenyl)-amide] | < 9 µM |
| CC(C)(C)c1cc(NC(=O)c2cc(-c3ccccc3)n(-c3ccc(Cl)cc3)n2)no1 [Example 30, 1-(4-Chloro-phenyl)-5-phenyl-1H-pyrazole-3-carboxylic acid (5-tert-butyl-isoxazol-3-yl)-amide] | 15 µM |
| 5-[3-tert-Butyl-1-(2,4-dichlorobenzyl)pyrazol-5-yl]-4-methyltriazole-3-thiol | < 9 µM |
| CC(C)(C)c1cc(C(=O)Nc2nc(-c3cccnc3)cs2)n(Cc2ccc(Cl)cc2Cl)n1 [Example 41, 5-tert-Butyl-2-(2,4-dichloro-benzyl)-2H-pyrazole-3-carboxylic acid (4-(pyridin-3-yl)thiazol-2-yl)-amide] | 14 µM |
| CC(C)(C)c1cc(C(=O)Nc2cccc(-c3cnco3)c2)n(Cc2ccccc2)n1 [Example 28, 2-Benzyl-5-tert-butyl-2H-pyrazole-3-carboxylic acid (3-oxazol-5-yl-phenyl)-amide] | < 9 µM |

| Compound | IC50 |
| --- | --- |
| CC(C)(C)c1cc(C(=O)Nc2cccc(C(=O)Nc3ccccc3)c2)n(Cc2ccccc2)n1 [Example 32, 2-Benzyl-5-tert-butyl-2H-pyrazole-3-carboxylic acid (3-phenylcarbamoyl-phenyl)-amide] | 22 µM |
| CCn1nc(-c2cccs2)cc1C(=O)Nc1ccc(Cl)cc1 [Example 13, 2-Ethyl-5-thiophen-2-yl-2H-pyrazole-3-carboxylic acid (4-chloro-phenyl)-amide] | 17 µM |
| CCn1nc(-c2cccs2)cc1C(=O)Nc1nc(-c2cccnc2)cs1 [Example 42, 2-Ethyl-5-thiophen-2-yl-2H-pyrazole-3-carboxylic acid (4-(pyridin-3-yl)thiazol-2-yl)-amide] | < 9 µM |
| CC(C)(C)c1cc(C(=O)Nc2ccc(Cl)nc2)n(Cc2ccccc2)n1 [Example 34, 2-Benzyl-5-tert-butyl-2H-pyrazole-3-carboxylic acid (6-chloro-pyridin-3-yl)-amide] | < 9 µM |
| Cc1cc(C(=O)Nc2ccc(Cl)c(Cl)c2)n(C(C)(C)C)n1 [Example 22, 2-tert-Butyl-5-methyl-2H-pyrazole-3-carboxylic acid (3,4-dichloro-phenyl)-amide] | < 9 µM |
| O=C(NO)c1ccc(-c2nn(Cc3ccccc3)c3ccccc23)o1 [Example 6, 1-Benzyl-3-(5-hydroxylaminocarbonyl-2-furyl)-1H-indazole] | 30.9 µM |
| CC(C)(C)c1cc(C(=O)Nc2ccc(Cl)cc2)n(Cc2ccc(Cl)cc2Cl)n1 [Example 14, (S)-5-tert-Butyl-2-(2,4-dichloro-benzyl)-2H-pyrazole-3-carboxylic acid (4-chloro-phenyl)-amide] | 29 µM |
| CC(C)(C)c1cc(C(=O)Nc2ccc(Br)c(Cl)c2)n(Cc2ccccc2)n1 [2-Benzyl-5-tert-butyl-2H-pyrazole-3-carboxylic acid (4-bromo-3-chloro-phenyl)-amide] | 3 µM |
| Cc1cc(C(=O)Nc2ccc(C(=O)Nc3ccccc3)cc2)n(C(C)(C)C)n1 [Example 31, 2-tert-Butyl-5-methyl-2H-pyrazole-3-carboxylic acid (4-phenylcarbamoyl-phenyl)-amide] | 22 µM |
| Cn1nc(C(C)(C)C)cc1C(=O)Nc1ccc(Cl)c(Cl)c1 [Example 23, 5-tert-Butyl-2-methyl-2H-pyrazole-3-carboxylic acid (3,4-dichloro-phenyl)-amide] | < 9 µM |
| CCn1nc(-c2cccs2)cc1C(=O)Nc1ccc(NC(C)=O)cc1 [Example 40, 2-Ethyl-5-thiophen-2-yl-2H-pyrazole-3-carboxylic acid (4-acetylamino-phenyl)-amide] | < 9 µM |
| CCn1nc(C)cc1-c1nnc(SCc2ccccc2)n1-c1ccccc1 [3-(Benzylthio)-5-(1-ethyl-3-methyl-1H-pyrazol-5-yl)-4-phenyl-4H-1,2,4-triazolehemihydrate] | 20 µM |
| CN(C)CCNC(=O)c1nn(Cc2ccccc2)c2ccccc12 [Example 47, 1-Benzyl-3-[N-(2-N,N-dimethylaminoethyl)carboxamido]indazole] | 63 µM |
| C#CCSc1nnc(-c2cc(C(C)(C)C)nn2Cc2ccc(Cl)cc2Cl)n1-c1ccccc1 [3-[3-(tert-Butyl)-1-(2,4-dichlorobenzyl)-1H-pyrazol-5-yl]-4-phenyl-5-(prop-2-ynylthio)-4H-1,2,4-tziazole] | 18 µM |
| CCNCCCCc1nn(Cc2ccccc2)c2ccccc12 [Example 46, [N-Ethyl-(4-Aminobutyl)]-1-benzylindazole] | 15.5 µM |
